Patent US20260144879A1, “ANTI-VIRAL AND HEPATIC-TARGETED DRUGS” (AI-BIOPHARMA, priority 2019, published 2026)

How the values were obtained:
[1] = Cell viability by neutral red and MTS (CellTiter 96 Aqueous One Solution) tests, HepaRG cells; type: cell-based, human; details: human, differentiated HepaRG (dHepaRG) cells, CellTiter-Glo, read-out: Cytotoxicity (CC50 in μM) in dHepaRG CellTiter-Glo
Method: (§1) From Methods in Lucifora J. et al. (Direct antiviral properties of TLR ligands against HBV replication in immune-competent hepatocytes, Science Scientific Reports, 2018, 8:5390): • 1) HepaRG cells were cultured, as described previously by Gripon P. et al. (Infection of a human hepatoma cell line by hepatitis B virus. Proc Natl Acad Sci USA, 2002, 99, p 15655-15660) on pages 15655 and 15656, in Williams E medium supplemented with 10% fetal calf serum, 50 U penicillin/streptomycin (Gibco-Invitrogen) ml^−1, […] ml^−1 and 5×10^−7 M hydrocortisone hemisuccinate (Roche Diagnostics and Boehringer Mannheim, respectively). The cell cultures were maintained in a 5% CO2 atmosphere at 37° C. During the proliferation phase, culture medium was renewed every 2 days. For differentiation and infection, cells were maintained for 2 weeks in standard medium and then for at least 2 more weeks in medium supplemented with 1.8-2.0% DMSO (Sigma). • 2) Primary Human Hepatocytes (PHH) were freshly prepared from human liver resection as previously described by Lecluyse, E. L. & Alexandre, E. (Isolation and culture of primary hepatocytes from resected human liver tissue. Methods Mol Biol, 2010, 640, p 57-82, https://doi.org/10.1007/978-1-60761-688-7_3) on page 63 paragraph 3. “Methods” from section 3.1. through 3.6.2. page 77. […] K. et al., Inducible expression of human hepatitis B virus (HBV) in stably transfected hepatoblastoma cells: a novel system for screening potential inhibitors of HBV replication. Antimicrob Agents Chemother, 1997, 41, p 1715-1720) supernatants by polyethylene-glycol-MW-8000 (PEG8000, SIGMA) precipitation (8% final) as previously described by Luangsay, S. et al. (Early inhibition of hepatocyte innate responses by hepatitis B virus. J Hepatol, 2015, 63, p 1314-1322, https://doi.org/10.1016/j.jhep.2015.07.014).

[2] = system: HBV (genotype D, serotype ayw, Galibert's strain); assay: Quantification of virion associated secreted HBV DNA in supernatant of HBV-infected Primary Human Hepatocytes (PHH) by qPCR, % of replication vs DMSO; type: cell-based, hepatitis B virus; details: 1 μM compound, 7 days treatment, DMSO = 100%; for activity at 1 µM: Hepatitis B virus, Hepatocyte, 168 h, (*) n = 1, read-out: PHH HBV % of replication at 1 μM compared to DMSO; for PHH HBV % of replication at 1 μM compared to DMSO: (*) n = 1
Method: (§2) From Methods in Lucifora J. et al. (Direct antiviral properties of TLR ligands against HBV replication in immune-competent hepatocytes, Science Scientific Reports, 2018, 8:5390): • 1) HepaRG cells were cultured, as described previously by Gripon P. et al. (Infection of a human hepatoma cell line by hepatitis B virus. Proc Natl Acad Sci USA, 2002, 99, p 15655-15660) on pages 15655 and 15656, in Williams E medium supplemented with 10% fetal calf serum, 50 U penicillin/streptomycin (Gibco-Invitrogen) ml^−1, […] ml^−1 and 5×10^−7 M hydrocortisone hemisuccinate (Roche Diagnostics and Boehringer Mannheim, respectively). The cell cultures were maintained in a 5% CO2 atmosphere at 37° C. During the proliferation phase, culture medium was renewed every 2 days. For differentiation and infection, cells were maintained for 2 weeks in standard medium and then for at least 2 more weeks in medium supplemented with 1.8-2.0% DMSO (Sigma). • 2) Primary Human Hepatocytes (PHH) were freshly prepared from human liver resection as previously described by Lecluyse, E. L. & Alexandre, E. (Isolation and culture of primary hepatocytes from resected human liver tissue. Methods Mol Biol, 2010, 640, p 57-82, https://doi.org/10.1007/978-1-60761-688-7_3) on page 63 paragraph 3. “Methods” from section 3.1. through 3.6.2. page 77. All experimental procedures were conducted in conformity with French laws and regulations and were approved by the National Ethics Committee. • 3) Cell viability was measured by both neutral red and MTS (CellTiter 96 Aqueous One Solution cell proliferation assay; Promega) tests. • 4) HBV inoculum (genotype D, serotype ayw, Galibert's strain referred as NC_003977.2 at NCBI) was prepared from HepAD38 (see Ladner, S. K. et al., Inducible expression of human hepatitis B virus (HBV) in stably transfected hepatoblastoma cells: a novel system for screening potential inhibitors of HBV replication. Antimicrob Agents Chemother, 1997, 41, p 1715-1720) supernatants by polyethylene-glycol-MW-8000 (PEG8000, SIGMA) precipitation (8% final) as previously described by Luangsay, S. et al. (Early inhibition of hepatocyte innate responses by hepatitis B virus. J Hepatol, 2015, 63, p 1314-1322, https://doi.org/10.1016/j.jhep.2015.07.014).
(§3) Viral stocks with titer reaching at least 1×10^10 viral genome equivalent (vge)/mL were tested endotoxin free.
(§4) Differentiated HepaRG (dHepaRG) or PHH were infected by HBV at a multiplicity of infection of 100-200 vge/cell in culture medium containing 4% PEG 8000 (Sigma) for 16 h at 37° C. in 12- or six-well plates. At the end of the incubation period, cells were washed once with medium and then cultured in Williams E medium containing DMSO as indicated. In general infection was left for 7 days before any treatment was started, to allow replication reaching its maximum. • 5) Infected cell treatment with compounds of interest: • 5a: After 7 days of infection with the virus (day 0 to day 7), the dHepaRG cells were treated (3 treatments: day 7, day 10 and day 12) with a […] of the tested compound (diluted with sterile water from a 10 mM stock DMSO solution) or DMSO as reference negative control for 7 more days. • 5b: After 4 days of infection with the virus (day 0 to day 4), the PHH cells were treated (3 treatments: day 4, day 7 and day 9) with a […] of the tested compound (diluted with sterile water from a 10 mM stock DMSO solution) for 7 more days. • 6) Quantification of virion associated secreted HBV DNA in cell culture supernatant:
(§5) At the end of the experiment (7 days treatment) the supernatant of infected and treated cells (either dHepaRG or PHH or others) is collected. It is diluted 1/4 into sterile water (molecular biology quality) then treated for 30 minutes with RNAse (10 unit) and DNAse (10 unit) to remove non encapsidated material. […]

[3] = system: HBV (genotype D, serotype ayw, Galibert's strain); assay: Quantification of virion associated secreted HBV DNA in supernatant of HBV-infected differentiated HepaRG (dHepaRG) cells by qPCR, % of replication vs DMSO; type: cell-based, hepatitis B virus; details: 1 μM compound, 7 days treatment, DMSO = 100%; for activity at 1 µM: Hepatitis B virus, HepaRG, 168 h, read-out: dHepaRG HBV % of replication at 1 μM compared to DMSO
Method: as §2, §3, §4, §5

[4] = system: HepaRG cells; assay: Cell viability by neutral red and MTS (CellTiter 96 Aqueous One Solution) tests, HepaRG cells; type: cell-based, human; details: dHepaRG cells, CellTiter-Glo; read-out: Cytotoxicity (CC50 in μM) in dHepaRG CellTiter-Glo
Method: as §1

| SMILES | CC50 [1] [µM] | activity at 1 µM [2] [%] | activity at 1 µM [3] [%] | CC50 [4] [µM] | PHH HBV % of replication at 1 μM compared to DMSO [2] | dHepaRG HBV % of replication at 1 μM compared to DMSO [3] |
| --- | --- | --- | --- | --- | --- | --- |
| CC(C)OC(=O)CC1COP(=O)(CO[C@H](C)Cn2cnc3c(N(C(=O)c4ccccc4)C(=O)c4ccccc4)ncnc32)OC1 (stereo partly drawn) [Example 20, (R)-isopropyl 2-(2-(((1-(6-(N-benzoylbenzamido)-9H-purin-9-yl)propan-2-yl)oxy)methyl)-2-oxido-1,3,2-dioxaphosphinan-5-yl)acetate] | > 50 | ≤ 30 | ≤ 30 |  |  |  |
| CC(C)OC(=O)CC1COP(=O)(CO[C@H](C)Cn2cnc3c(N)ncnc32)OC1 (stereo partly drawn) [Example 3, (R)-isopropyl 2-(2-(((1-(6-amino-9H-purin-9-yl)propan-2-yl)oxy)methyl)-2-oxo-1,3,2-dioxaphosphinan-5-yl)acetate] | > 50 | ≤ 30 | ≤ 30 |  |  |  |
| CC(C)OC(=O)[C@H](C)N[P@](=O)(CO[C@H](C)Cn1cnc2c(N)ncnc21)Oc1ccccc1 [TAF] |  |  |  | < 10 | ++++ (++++ ≤ 30%) | ++++ (++++ ≤ 30%) |
| CC(C)OC(=O)CC1COP(=O)(CO[C@H](C)Cn2cnc3c(NC(=O)c4ccccc4)ncnc32)OC1 (stereo partly drawn) [Example 21, (R)-isopropyl 2-(2-(((1-(6-benzamido-9H-purin-9-yl)propan-2-yl)oxy)methyl)-2-oxo-1,3,2-dioxaphosphinan-5-yl)acetate] | > 50 | ≤ 30 | ≤ 30 |  |  |  |
| C[C@H](Cn1cnc2c(N)ncnc21)OCP(=O)(O)O [TFV] |  |  |  | > 50 | ++++ (++++ ≤ 30%) | ++++ (++++ ≤ 30%) |
